# Assay results published in publication doi:10.1101/2024.08.19.608619, “Discovery of potent SARS-CoV-2 nsp3 macrodomain inhibitors uncovers lack of translation to cellular antiviral response” (bioRxiv, 2024).
# Columns and labels:
# [1] = iPSC pneumocytes cytotoxicity; assay type: cell-based; conditions: protocol iPSC pneumocytes cytotoxicity
# Text: Supplement media-1.zip/Cytotoxicity.csv, table | column: cc10; cc50; perc_min_measured; perc_max_measured
# in vitro = assay: in vitro; design: Cytotoxicity in iPSC-derived pneumocytes, CC50; conditions: human, ipsc-derived pneumocytes; ASAP-0008327-001=ASAP-0011176-001; read-out: 50.0
# [2] = molecular target: HiBiT-tagged nsp3-mac1 in HEK293 cells (Severe acute respiratory syndrome coronavirus 2, UniProt P0DTD1); assay: HiBiT Cellular Thermal Shift Assay / isothermal dose response thermal shift assay (ITDRF CETSA); assay type: cell-based, SARS-CoV-2; conditions: fixed temperature 50.6°C
# Method: A PCR product encoding SARS Cov-2 macrodomain residues 2 to 176 was cloned into the XhoI and BamHI restriction sites of the pBIT3.1-N vector (Promega) which has an N-terminal 11 amino acid HiBiT tag.
# A PCR product encoding SARS Cov-2 macrodomain residues 1 to 176 was cloned into the HindIII and XhoI restriction sites of the pBIT3.1-C vector(Promega) which has an C-terminal 11 amino acid HiBiT tag.
# Both constructs were evaluated for CETSA experiments and found to give similar results. For the results described the CHIBIT tag was used.
# HiBiT Cellular Thermal Shift Assay (HiBiT-CETSA). To assess the engagement of nsp3-mac1 in intact cells, a HiBiT Cellular Thermal Shift Assay was conducted as described by Ramachandran et al. ([23]). The Nano-Glo HiBiT lytic detection system (Promega) was used according to the manufacturer’s instructions. Briefly, HEK293 cells were reverse-transfected with HiBiT-tagged nsp3-mac1 at a concentration of 400,000 cells/mL using the FuGENE transfection reagent (Promega). Following a 24-hour incubation period, the cells were trypsinized and resuspended in assay medium at the same concentration.
# For CETSA, the cells were divided into two groups: one treated with 30 μM of the compounds and the other with DMSO as a control. […] The luminescence signals were measured using a PHERAstar FSX and analyzed with GraphPad Prism software (v.9 or v.10).
smiles,measurement,setting,value
CC(C)C(Nc1ncnc2[nH]ccc12)c1ccc2c(c1)S(=O)(=O)CCC2 (stereo not drawn) [ASAP-0008327],CC50,[1],> 50 µM
CNCc1cc(-c2cc3c(N[C@@H](c4ccc5c(c4)S(=O)(=O)CCC5)C(C)C)ncnc3[nH]2)co1 [ASAP-0011176],CC50,in vitro,> 50 µM
Cc1nn(C)cc1-c1cc2c(NC(c3ccc4c(c3)S(=O)(=O)CCC4)C(C)C)ncnc2[nH]1 (stereo not drawn) [ASAP-0011446],EC50,[2],0.014 µM
